Patent EP0870499A1, “Oral use of (+)-0-Demethyltramadol as analgesic” (Grünenthal GmbH, priority 1997, dated 1998)
Like-named read-outs stand apart in the source and are kept apart here.

Tests used:
männliche NMRI-Mäuse [1] = assay: Tail-flick test (radiant heat) in the mouse; type: in vivo, Maus; details: for ED50: Mus musculus
Description: (§1) Dazu wurden männliche NMRI-Mäuse mit einem Gewicht von 20 bis 25 g oder weibliche Sprague Dawly-Ratten mit einem Gewicht von 120 bis 160 g verwendet. Die Tiere wurden einzeln in Testkäfige gesetzt und die Schwanzbasis einem fokussierten Wärmestrahl einer elektrischen Lampe (Rhema-Analgesiemeter) ausgesetzt. Die Lampenintensität wurde so eingestellt, daß die Zeit vom Einschalten der Lampe bis zum plötzlichen Wegzucken des Schwanzes (Schmerzlatenz) bei unbehandelten Tieren 3 bis 6 Sekunden betrug. Vor Gabe der erfindungsgemäß zu verwendenden Verbindung wurden die Tiere innerhalb von 5 Minuten zweimal getestet und der Mittelwert dieser Messungen als Vortestmittelwert berechnet. Die Schmerzmessung wurde 20, 40 und 60 Minuten nach intravenöser und 30, 60, 90, 120 Minuten nach oraler Gabe durchgeführt. Bei Anstieg der Schmerzlatenz wurde die maximale Expositionszeit auf 12 Sekunden beschränkt und die Zunahme der Latenzzeit von >150 % des Vortestmittelwerts als analgetische Wirkung gewertet. Zur Bestimmung der Dosisabhängigkeit wurden die Verbindungen in 3 bis 5 logarithmisch ansteigenden Dosen, die jeweils die Schwellen- und die maximale Wirkdosis einschlossen, appliziert und aus der Anzahl der Tiere, die analgetische Wirkung zeigten, nach der Methode von Litchfeld und Wilcoxon (J. Pharm. Ex. Ther. 96, 99 bis 113 (1949)) die ED50-Werte bestimmt. Die ED50-Berechnung erfolgte im Wirkmaximum jeweils 20 Minuten nach intravenöser und jeweils 30 Minuten nach oraler Substanzgabe.
(§2) Die Bestimmung der oralen Wirkverfügbarkeit erfolgte aus dem Verhältnis der ED50-Werte bei i.v.- und p.o.-Gabe. Wirkverfügbarkeit =(ED50 i.v.)/(ED50 p.o.) [formula]

männliche NMRI-Mäuse [2] = assay: Phenylquinone-induced writhing test in the mouse; type: in vivo, Maus
Protocol: Die Untersuchung auf analgetische Wirksamkeit wurde im Phenylchinon-induzierten Writhing an der Maus (modifiziert nach I. C. Hendershot, J. Forsaith, J. Pharmacol. Exp. Ther. 125, 237 - 240 (1959)) durchgeführt. Dazu wurden männliche NMRI-Mäuse mit einem Gewicht von 25 bis 30 g verwendet. Gruppen von 10 Tieren pro Substanzdosis erhielten 10 Minuten nach intravenöser Gabe und 30 Minuten nach oraler Gabe der erfindungsgemäß zu verwendenden Verbindungen 0,3 ml/Maus einer 0,02 %-igen wäßrigen Lösung des Phenylchinon (Phenylbenzochinon, Fa. Sigma, Deisenhofen; Herstellung der Lösung unter Zusatz von 5 % Ethanol und Aufbewahrung im Wasserbad bei 45° C) intraperitoneal appliziert. Die Tiere wurden einzeln in Beobachtungskäfige gesetzt und mittels Drucktastenzähler die Anzahl der Schmerz-induzierten Streckbewegungen (sogenannte Writhing-Reaktionen = Durchdrücken des Körpers nach Abstrecken der Hinterextremitäten) 5 bis 20 Minuten nach der Phenylchinongabe ausgezählt. Aus der dosisabhängigen Abnahme der Writhing-Reaktionen im Vergleich zu parallel untersuchten, nur mit Phenylchinon behandelten Kontrollgruppen wurden mittels Regressionsanalyse (Auswerteprogramm Martens, EDV-Serivce, Eckental) der ED50-Wert für die Hemmung der Writhing-Reaktlon berechnet.

[3] = Animal experiments on constipating effect (no method given); type: in vivo; details: compared with Morphin
[4] = system: weibliche Sprague Dawly-Ratten; assay: Tail-flick test (radiant heat) in the rat; details: for ED50: Rattus norvegicus
Description: as §1, §2

[5] = system: weibliche Sprague Dawly-Ratten; details: rat, in vivo
Description: as §1, §2

[6] = iv, 20 min, read-out: ED50-Werte Tail-flick, Ratte i.v.
[7] = po, 0.5 h, read-out: ED50-Werte Tail-flick, Ratte p.o.

SMILES | ED50 (männliche NMRI-Mäuse [1]; iv, 20 min, read-out: ED50-Werte Tail-flick, Maus i.v.) [mg/kg] | ED50 (männliche NMRI-Mäuse [1]; po, 0.5 h, read-out: ED50-Werte Tail-flick, Maus p.o.) [mg/kg] | orale Wirkverfügbarkeit (männliche NMRI-Mäuse [1]; Tail-flick, mouse, (ED50 i.v.)/(ED50 p.o.)) | besser oral verfügbar als Morphin (männliche NMRI-Mäuse [1]; mouse (tail-flick and writhing taken together), relative to Morphin) [mal] | analgetische Wirkung (männliche NMRI-Mäuse [2]; Writhing test, result in words) | orale Wirkverfügbarkeit (männliche NMRI-Mäuse [2]; Writhing, (ED50 i.v.)/(ED50 p.o.)) | ED50 (männliche NMRI-Mäuse [2]; iv, 10 min, i.v., phenylquinone i.p. 10 min after dosing, read-out: ED50-Werte Writhing, Maus i.v.) [mg/kg] | ED50 (männliche NMRI-Mäuse [2]; po, 0.5 h, p.o., phenylquinone i.p. 30 min after dosing, read-out: ED50-Werte Writhing, Maus p.o.) [mg/kg] | obstipierende Wirkungen [3] | ED50 [4, 6] [mg/kg] | ED50 [4, 7] [mg/kg] | analgetische Wirkung ([4]; Tail-flick test, rat, result in words) | orale Wirkverfügbarkeit ([4]; Tail-flick, rat, (ED50 i.v.)/(ED50 p.o.)) | besser oral verfügbar als Morphin ([4]; rat, tail-flick, relative to Morphin) [mal] | orale Wirkverfügbarkeit [5]
CN(C)C[C@H]1CCCC[C@]1(O)c1cccc(O)c1 [(+)-O-Demethyltramadol] | 1.41 | 3.75 | 0,38 | ~5 | ausgeprägte analgetische Wirkung | 0,26 | 0.49 | 1.87 | schwächere obstipierende Wirkungen als Morphin | 1.01 | 4.9 | ausgeprägte analgetische Wirkung | 0,21 | ~20 | –
CN1CC[C@]23c4c5ccc(O)c4O[C@H]2[C@@H](O)C=C[C@H]3[C@H]1C5 [Morphin, reference compound] | – | – | – | – | – | – | – | – | – | 0.93 | 75 | – | – | – | 0,01
